The text below walks through data of US12090122B2, “Curcumin-based compositions and methods of use thereof” (priority 2017, dated 2024).

Holding throughout (assay type): cell-based
The subject of one test is NFkB-p65. In words: Western blot of cytoplasmic and nuclear NFkB-p65 protein levels (nucleotranslocation) in LPS-induced BV2 cells. The note with it: 22.0 μg/ml, 30 min pre-treatment, LPS induction, FIGS. 3 and 4. As to the method:
(§1) Example 2—Western Blot Analysis of Cytoplasmic and Nuclear MSK1 Levels. Western blot analysis was performed in multiple varying formats before optimization was achieved. The BV2 microglia cell line was cultured in Dulbecco's Modified Eagle's Medium (DMEM)—complete medium. The complete medium consisted of DMEM, 1% Ampicillin, and 10% Fetal Bovine Serum (FBS). BV2 microglia cells, at a cell count of approximately 2×10^6, were seeded in each well (6 wells per plate) with 2.0 ml complete medium and cultured overnight in a ThermaForma HepaFilter Series II CO2 Incubator at 37° Celsius. Upon establishing confluence, subconfluent cells were washed out and the wells were prepared with drug pre-treatment after overnight incubation.
(§2) The test drugs (curcuminoids) were procured as follows: curcumin I research standard (03926) (ChromaDex Irvine, CA USA) (97.7% purity); curcumin II research standard (04230) (ChromaDex Irvine, CA USA) (97.3%); curcumin III research standard (B6938) (Sigma-Aldrich St. Louis, Missouri, USA) (97.7% purity); curcumin extract (curcumin I—77.7%, curcumin II—16.9%, curcumin III—0.9%) research standard (03928) (ChromaDex Irvine, CA USA) (95.3% purity); and Lipopolysaccharide (LPS) from E. Coli (L2630) (Sigma-Aldrich St. Louis, Missouri, USA).
(§3) Curcuminoids are not soluble in aqueous medium due to their hydrophobic characteristic. However, curcuminoid extracts are soluble in polar organic solvents, such as DMSO and acetone. In this Example, each curcuminoid preparation was first dissolved in DMSO. DMSO was used in the drug preparation at 0.2%. The drug/DMSO solution was subsequently dissolved in DMEM to achieve a final drug concentration for each curcuminoid preparation tested—22.0 μg/ml curcuminoid. […]
(§4) Total protein concentration for each fraction was determined using a Bio Rad Protein Assay that is based on the Bradford Assay (dye-binding method). […]
(§5) The targets analyzed in the Western Blot included NFkB-p65 and its nucleocytoplasmic translocation, as well as kinases (including MSK1) and their covalent modifications upstream of and involved in the regulation of NFkB. […]

Test [1] concerns NFkB p65 phosphorylated at the serine 276 phosphosite. Briefly: Western blot of NFkB-p65 phosphorylated at serine 276 in LPS-induced BV2 cells. As to conditions: 22.0 μg/ml, 30 min pre-treatment, LPS induction, cytoplasmic and nuclear, FIGS. 5 and 6. As to the method: as §1, §2, §3, §4, §5
Test [2] has as its system MSK1 phosphorylated at the serine 376 phosphosite. Briefly: Western blot of MSK1 phosphorylated at serine 376 in LPS-induced BV2 cells. The note with it: 22.0 μg/ml, 30 min pre-treatment, LPS induction, FIGS. 9 and 10. As to the method:
as §1, with “incubation. […]” for “incubation.”
as §4, §5

On to `COc1cc(/C=C/C(=O)/C=C(O)/C=C/c2ccc(O)c(OC)c2)ccc1O` [curcumin I, (1E,6E)-1,7-Bis(4-hydroxy-3-methoxyphenyl)-1,6-heptadiene-3,5-dione, reference compound], for which the “NFkB-p65 nucleotranslocation (cytosolic and nuclear NFkB-p65 levels relative to total protein)” value with NFkB-p65 was “not significantly inhibited”. Moreover, the “NFkB-p65 serine 276 phosphorylation” value in test [1] is listed as “moderately inhibit”.
For the compound `COc1cc(/C=C/C(=O)CC(=O)/C=C/c2ccc(O)cc2)ccc1O` [curcumin II, (1E,6E)-1-(4-Hydroxy-3-methoxyphenyl)-7-(4-hydroxyphenyl)hepta-1,6-diene-3,5-dione], the “NFkB-p65 nucleotranslocation (cytosolic and nuclear NFkB-p65 levels relative to total protein)” value with NFkB-p65 is “not significantly inhibited”. In addition, the “NFkB-p65 serine 276 phosphorylation” value in test [1] is “moderately inhibit”. The “MSK1 serine 376 phosphorylation” value in test [2] is given as “inhibit”.
Regarding `O=C(/C=C/c1ccc(O)cc1)CC(=O)/C=C/c1ccc(O)cc1` [curcumin III, (1E,6E)-1,7-bis(4-hydroxyphenyl)hepta-1,6-diene-3,5-dione], in the test with NFkB-p65, the “NFkB-p65 nucleotranslocation (cytosolic and nuclear NFkB-p65 levels relative to total protein)” value is given as “not significantly inhibited”. Besides, the “NFkB-p65 serine 276 phosphorylation” value in test [1] is on record as “moderately inhibit”.
